From patent US12448388B2, “PRMT5 inhibitors and uses thereof” (Gilead Sciences, Inc., priority 2023, dated 2025)

Columns and labels:
[1] = MDR1/BCRP assay: permeability in cPgp-KO-MDCK-WT cells; format: in vitro ADME; settings: dog, pH 7.4
How it was run: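 Compounds at 1 μM were dosed apically or basolaterally on 5-day confluent cPgp-KO-MDCK monolayers, HBSS/HEPES/glucose pH 7.4 donor and receiver with 1% BSA, duplicate wells. Receiver samples at 2 h were analysed by LC-MS/MS to give A→B and B→A Papp plus % recovery; TEER confirmed integrity.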

[2] = Hepatocyte stability assay, human; format: in vitro ADME; settings: human hepatocytes, 1 μM
How it was run: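 Cryopreserved hepatocytes (viability ≥85%) incubated with 1 μM compound at 1×10^6 cells/mL in KHB, 37 °C, 95% air/5% CO2, sampled at 0, 1, 3 and 6 h. Parent remaining quantified by LC-MS/MS; half-life from first-order exponential fit (ln2/k), scaled to intrinsic hepatic clearance.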

[3] = Cell viability assay (CellTiter-Glo, 7 days), HCT116 WT; format: cell-based; settings: human, HCT116 WT cells, 7 days of treatment, CTG
How it was run: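 CC50 values come from 7-day CellTiter-Glo viability measurements on cells exposed to a dose range of PRMT5 inhibitors dispensed from DMSO stocks.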

Row | Compound | Papp A→B at 2 h, 1 µM [1] | Human Predicted Hepatocyte CL [2] | CC50 at 7 days [3]
1 | Nc1nc2cnc(C(=O)N3CC[C@H]4C[C@@H]3c3ccc(OC(F)(F)F)cc3O4)cc2n2cncc12 [Ff-685, (4-aminoimidazo[1,5-a]pyrido[3,4-e]pyrazin-8-yl)((2S,6R)-9-(trifluoromethoxy)-3,4-dihydro-2H-2,6-methanobenzo[b][1,5]oxazocin-5(6H)-yl)methanone] | 11.2 ×10⁻⁶ cm/s | 0.29 L/h/kg | 1130 nM
2 | C[C@@H]1CN(C(=O)c2cc3c(cc2F)nc(N)c2cncn23)[C@H]2c3cc(F)c(OC(F)(F)F)cc3C[C@H]2O1 (single isomer, unassigned) [Ff-197] | 16 ×10⁻⁶ cm/s | 0.25 L/h/kg | 712 nM
